One series addresses T1, human Cdk-2/E (Homo sapiens, UniProt P24941).
T1 construct: made in house; host or cells: Sf9 insect cells (baculovirus)
Description: Cdk2/Cyclin E kinase assay. The series is classed as biochemical. The note with it: phosphorylation of GST-Rb, 32P-ATP filter plate, 30 min at 30° C. The source says: (§1) Cdk4/Cyclin D1 Kinase Assay and Cdk2/Cyclin E Kinase Assay
(§2) The assays measure phosphorylation of retinoblastoma protein (Rb) by Cdk4 or Cdk2 upon activation by cyclin D1 or cyclin E, respectively, through the transfer of (γ^32P)-phosphate from γ^32P-ATP in a 96-well filter plate assay.
Cdk4 or Cdk2 was co-expressed with cyclin D1 or cyclin E, respectively, by a baculovirus expression system in insect cells. For this, 1×10^7 Sf9 cells were coinfected with baculoviruses containing human Cdk-4 or 2 and cyclin D1 or E genes and after 72 hours cells were lysed in 500 μl of a lysis buffer (50 mM HEPES (pH 7.5), 10 mM MgCl2, 1 mM DTT, 5 μg/ml of aprotinin, 5 μg/ml of leupeptin, 0.1 mM NaF, 0.2 mM phenylmethylsulfonyl fluoride (PMSF), and sodium orthovanadate). Centrifuged lysate was purified on a GST-sepharose column. Purity of the proteins was checked by SDS-PAGE followed by western blots using specific antibodies (Santacruz Biotec, USA) to Cdk4 or Cdk2. […]
(§3) Quantitation was by scintillation detection of (^32P)-GST-Rb in 96-well filter plates using Top Count scintillation 96-well counter (Packard, USA).
The Cdk 4 or Cdk 2 enzyme assay was run in 96-well format using Millipore Multiscreen filtration plates. […] The plate was counted in a Packard Top Count Scintillation Counter for 10 min. […]

The target of the next series is T2, human Cdk-4/D1 (Homo sapiens, UniProt P11802).
T2 construct: made in house; host or cells: Sf9 insect cells (baculovirus)
T2 sequence (P11802 whole entry): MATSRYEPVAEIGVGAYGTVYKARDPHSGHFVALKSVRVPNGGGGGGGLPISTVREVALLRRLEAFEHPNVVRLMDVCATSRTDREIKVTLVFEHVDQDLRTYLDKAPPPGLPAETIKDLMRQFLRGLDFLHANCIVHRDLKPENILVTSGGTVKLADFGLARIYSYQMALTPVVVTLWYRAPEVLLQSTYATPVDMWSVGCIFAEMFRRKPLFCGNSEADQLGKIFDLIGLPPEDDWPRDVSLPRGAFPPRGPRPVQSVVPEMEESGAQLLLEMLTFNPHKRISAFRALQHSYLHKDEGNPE
T2 sequence (P24385 whole entry partner): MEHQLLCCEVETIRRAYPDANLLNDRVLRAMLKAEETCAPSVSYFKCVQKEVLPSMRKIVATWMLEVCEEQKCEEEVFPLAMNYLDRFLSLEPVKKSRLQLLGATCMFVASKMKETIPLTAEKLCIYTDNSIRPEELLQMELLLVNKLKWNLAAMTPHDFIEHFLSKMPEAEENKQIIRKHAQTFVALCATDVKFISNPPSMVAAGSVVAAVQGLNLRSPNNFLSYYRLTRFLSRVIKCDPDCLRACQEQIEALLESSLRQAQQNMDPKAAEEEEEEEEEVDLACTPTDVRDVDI
Description: Cdk4/Cyclin D1 kinase assay. The note with it: for IC50: phosphorylation of GST-Rb, 32P-ATP filter plate, 30 min at 30° C.; for Ratio of IC50 Cdk2/E:Cdk4/D1: selectivity, Cdk2/E IC50 over Cdk4/D1 IC50. The series is classed as biochemical.
Text: as §1, §2
Cdk4 or Cdk2 was co-expressed with cyclin D1 or cyclin E, respectively, by a baculovirus expression system in insect cells. For this, 1×10^7 Sf9 cells were coinfected with baculoviruses containing human Cdk-4 or 2 and cyclin D1 or E genes and after 72 hours cells were lysed in 500 μl of a lysis buffer (50 mM HEPES (pH 7.5), 10 mM MgCl2, 1 mM DTT, 5 μg/ml of aprotinin, 5 μg/ml of leupeptin, 0.1 mM NaF, 0.2 mM phenylmethylsulfonyl fluoride (PMSF), and sodium orthovanadate). Centrifuged lysate was purified on a GST-sepharose column. Purity of the proteins was checked by SDS-PAGE followed by western blots using specific antibodies (Santacruz Biotec, USA) to Cdk4 or Cdk2.
GST-retinoblastoma (Rb) (aa 776-928) fusion protein is expressed in the bacteria E. coli and purified by GSH-Sepharose affinity chromatography. The GST-Rb bound to these beads served as the substrate in the assay.
as §3
The Cdk 4 or Cdk 2 enzyme assay was run in 96-well format using Millipore Multiscreen filtration plates. All assay steps took place in a single filter plate (Unifilter plates, Packard, USA). The filtration wells were pre-wet with kinase buffer (100 μl/well) and the solution was then removed by the application of vacuum, with the filter plate on a vacuum manifold and the vacuum on. 50 μl of GST-Rb bound to GSH-Sepharose beads in kinase buffer (0.5 μg GST-Rb/50 μl) was added to each well and vacuum was applied to removed the buffer. A further 25 μl of a reaction mix containing ATP (cold+hot) and phosphatase inhibitors diluted in kinase buffer were added to each well, followed by the addition of test compound (4× final concentration in kinase buffer) or kinase buffer (control) in an additional 25 μl volume. Finally 50 μl (100 ng) of human Cdk-4/D1 or Cdk-2/E enzyme in kinase buffer was added to each well to initiate the reaction. The reaction was incubated for 30 min at 30° C. After the reaction was complete, vacuum was applied and the plate was washed with the wash buffer (TNEN buffer) three times. The filter plate was air-dried and placed in a Multiscreen adapter plate. To each well, 30 μl Packard Microscint-O cocktail was added and the plate was covered with a Top-Seal A film. The plate was counted in a Packard Top Count Scintillation Counter for 10 min. […]

The test system of series [1] is H460 Lung. The experiment in a line: Cytotoxicity assay (MTS), H460. The series is classed as cell-based, human. As to the method:
(§4) In Vitro Cell Proliferation and Cytotoxicity Assays:
(§5) Exponentially growing cultures of ten human cancerous cell lines (HL-60 Promyelocytic Leukemia, PC-3 Prostate, H-460 Lung, MDA-MB-231 Breast, MCF-7 Breast, HeLa Cervix, Colo-205 Colon, H9 Lymphoma (T Cells), U-937 Histiocytic Lymphoma (monocytes) and CaCO-2 Colon) obtained from NCCS, Pune, India were used. The in vitro cell proliferation (NCI, USA protocol) and cytotoxicity assays were carried out using standard procedures viz. ^3H-Thymidine uptake and MTS assay, respectively (For ^3H-Thymidine uptake: Cell Biology, A Laboratory Handbook, 1998, Vol 1 Ed Julio E. Celis, and For MTS assay: Promega Protocol, USA, 2000). In the ^3H-Thymidine uptake assay, cells were harvested after 72 hours onto GF/B unifilter plates (Packard, USA) using a Packard Filtermate Universal harvester and the plates were counted on a Packard TopCount 96-well liquid scintillation counter. The concentration of compound at which 50% of proliferative activity was inhibited (IC50) and the degree of toxicity of compound were calculated for representative compounds and their pharmaceutically acceptable salts described in the Examples.

Series [2] concerns H460 Lung. Description: In vitro cell proliferation assay (3H-Thymidine uptake), H460. The note with it: Homo sapiens, NCI-H460, 72 hours. The series is classed as cell-based. As to the method:
as §4, §5

The subject of series [3] is MCF-7 Breast. Description: In vitro cell proliferation assay (3H-Thymidine uptake), MCF-7. The series is classed as cell-based. The settings on record: Homo sapiens, MCF7, 72 hours. As to the method: as §4, §5
The subject of series [4] is HeLa Cervix. The experiment in a line: In vitro cell proliferation assay (3H-Thymidine uptake), HeLa. The series is classed as cell-based. The settings on record: Homo sapiens, 72 hours. As to the method: as §4, §5
Series [5] concerns U-937 Histiocytic lymphoma (monocytes). Description: Cytotoxicity assay (MTS), U-937. The series is classed as cell-based, human. As to the method:
as §4, §5

Series [6] deals with HeLa Cervix. Description: Cytotoxicity assay (MTS), HeLa. The class given is cell-based, human. As to the method: as §4, §5
The test system of series [7] is U-937 Histiocytic lymphoma (monocytes). Description: In vitro cell proliferation assay (3H-Thymidine uptake), U-937. The settings on record: Homo sapiens, 72 hours. The class given is cell-based. How it is done:
as §4, §5

The subject of series [8] is PC-3 Prostate. The experiment in a line: In vitro cell proliferation assay (3H-Thymidine uptake), PC-3. The series is classed as cell-based. The settings on record: Homo sapiens, 72 hours. As to the method:
as §4, §5

Series [9] concerns MDAMB-231 Breast. Description: In vitro cell proliferation assay (3H-Thymidine uptake), MDA-MB-231. The series is classed as cell-based. The settings on record: Homo sapiens, 72 hours. How it is done:
as §4, §5

In series [10] the test system is MCF-7 Breast. The experiment in a line: Cytotoxicity assay (MTS), MCF-7. The class given is cell-based, human. How it is done:
as §4, §5

The subject of series [11] is PC-3 Prostate. Description: Cytotoxicity assay (MTS), PC-3. The series is classed as cell-based, human. How it is done:
as §4, §5

For series [12], the system named is MDAMB-231 Breast. Description: Cytotoxicity assay (MTS), MDA-MB-231. The series is classed as cell-based, human. How it is done:
as §4, §5

Molecules are shown by their SMILES. Where a name gives a salt, the structure may show the parent alone.

For `COc1ccc(Br)c(-c2cc(=O)c3c(O)cc(O)c([C@@H]4CCN(C)[C@H]4CO)c3o2)c1` (single isomer, unassigned) [Example 36 (Compound A), (+)-trans-2-(2-Bromo-5-methoxy-phenyl)-5,7-dihydroxy-8-(2-hydroxymethyl-1-methyl-pyrrolidin-3-yl)-chromen-4-one], the IC50 against human Cdk-2/E was 6 µM. Moreover, at human Cdk-4/D1, the IC50 came to 0.08 µM and the “Ratio of IC50 Cdk2/E:Cdk4/D1” value turned out to be 75.0.

For the molecule `CN1CC[C@H](c2c(O)cc(O)c3c(=O)cc(-c4ccccc4Cl)oc23)[C@H](O)C1` (relative stereo) [Flavopiridol, cis-{2-(2-Chloro-phenyl)-5,7-dihydroxy-8-(3-hydroxy-1-methyl-piperidin-4-yl)-chromen-4-one hydrochloride}, reference compound], the “degree of toxicity H460 Lung” value in the series with H460 Lung [1] is reported as “+ (30-50% toxic)”. Besides, the half-inhibitory concentration (IC50) in the series with H460 Lung [2] is 0.05 µM; in the series with MCF-7 Breast [3] it was 0.5 µM; with HeLa Cervix [4], 0.1 to 0.5 µM; in series [7], 0.1 µM; in the series with PC-3 Prostate [8], 0.05 to 0.1 µM; in the series with MDAMB-231 Breast [9], 0.1 µM. Also, the “degree of toxicity U-937 Histiocytic lymphoma (monocytes)” value (shortened to “degree … (monocytes)”) in series [5] is “++ (50-70% toxic)”. Further, the “degree of toxicity HeLa Cervix” value in the series on HeLa Cervix [6] is “+++ (above 70% toxic)”. Besides, in the series with MCF-7 Breast [10], the “degree of toxicity MCF-7 Breast” value is “+ (30-50% toxic)”. The “degree of toxicity PC-3 Prostate” value in the series with PC-3 Prostate [11] is “++ (50-70% toxic)”. The “degree of toxicity MDAMB-231 Breast” value in the series with MDAMB-231 Breast [12] was “++ (50-70% toxic)”.

The molecule `CN1CC[C@@H](c2c(O)cc(O)c3c(=O)cc(-c4ccccc4Br)oc23)[C@@H]1CO` [Example 17, (+)-trans-2-(2-Bromo-phenyl)-5,7-dihydroxy-8-(2-hydroxymethyl-1-methyl-pyrrolidin-3-yl)-chromen-4-one] registered a melting point of 235 to 237 °C. Besides, the “degree of toxicity H460 Lung” value in the series with H460 Lung [1] is “NT (not toxic ≦30%)”. Besides, in the series on H460 Lung [2], the IC50 is > 10 µM. The molecule also showed an IC50 with MCF-7 Breast [3] of 0.5 to 1 µM. Also, the IC50 with HeLa Cervix [4] lay in the range of 0.1 to 1 µM. Further, in series [5], the “degree … (monocytes)” value is listed as “+ (30-50% toxic)”. Besides, the “degree of toxicity HeLa Cervix” value in the series with HeLa Cervix [6] is listed as “+ (30-50% toxic)”. This molecule also yielded an IC50 in series [7] of 0.1 to 1 µM. Further, the IC50 with PC-3 Prostate [8] was in the range of 1 to 10 µM. The molecule further returned an IC50 with MDAMB-231 Breast [9] of 0.1 µM. Also, in the series on MCF-7 Breast [10], the “degree of toxicity MCF-7 Breast” value is given as “+ (30-50% toxic)”. Also, the “degree of toxicity PC-3 Prostate” value in the series on PC-3 Prostate [11] was “NT (not toxic ≦30%)”. The “degree of toxicity MDAMB-231 Breast” value in the series with MDAMB-231 Breast [12] is “NT (not toxic ≦30%)”.

On to `CN1CC[C@@H](c2c(O)cc(O)c3c(=O)cc(-c4ccccc4Cl)oc23)[C@@H]1CO` [Example 14A, (+)-trans-2-(2-Chloro-phenyl)-5,7-dihydroxy-8-(2-hydroxymethyl-1-methyl-pyrrolidin-3-yl)-chromen-4-one], for which the “degree of toxicity H460 Lung” value in the series on H460 Lung [1] is recorded as “NT (not toxic ≦30%)”. Moreover, the IC50 was in the range of 5 to 10 µM in the series on H460 Lung [2]; 0.5 to 1 µM in the series on MCF-7 Breast [3]; 0.1 to 0.5 µM in the series on HeLa Cervix [4]; 0.1 to 1 µM in series [7]; 0.5 to 1 µM in the series with PC-3 Prostate [8]; 0.5 to 1 µM in the series with MDAMB-231 Breast [9]. In series [5], the “degree … (monocytes)” value is reported as “+ (30-50% toxic)”. For the same molecule, the “degree of toxicity HeLa Cervix” value in the series with HeLa Cervix [6] is listed as “++ (50-70% toxic)”. The “degree of toxicity MCF-7 Breast” value in the series on MCF-7 Breast [10] was “NT (not toxic ≦30%)”. Besides, in the series with PC-3 Prostate [11], the “degree of toxicity PC-3 Prostate” value is listed as “++ (50-70% toxic)”. Moreover, in the series on MDAMB-231 Breast [12], the “degree of toxicity MDAMB-231 Breast” value was “NT (not toxic ≦30%)”.

For `CN1CC[C@@H](c2c(O)cc(O)c3c(=O)cc(-c4c(F)cccc4F)oc23)[C@@H]1CO` (single isomer, unassigned) [Example 80, (+)-trans-2-(2,6-Difluoro-phenyl)-5,7-dihydroxy-8-(2-hydroxymethyl-1-methyl-pyrrolidin-3-yl)-chromen-4-one], the melting point lay within 242 to 244 °C. For the same molecule, at human Cdk-2/E, half-maximal inhibition (IC50) was put at 8.75 µM. Also, at human Cdk-4/D1, the IC50 was determined as 0.28 µM and the “Ratio of IC50 Cdk2/E:Cdk4/D1” value is given as 31.2.

Take `CN1CC[C@@H](c2c(O)cc(O)c3c(=O)cc(-c4cc(O)ccc4Cl)oc23)[C@@H]1CO.Cl`: the melting point is 189 to 190 °C.

In general, IC50 refers to the point on the concentration scale where inhibition reaches its midpoint. What is called melting point is the temperature, or range, at which the solid turns liquid.

The values are drawn from US7884127B2, “Inhibitors of cyclin dependent kinases and their use” (Pirimal Life Sciences Ltd., priority 2002, dated 2011).
